pIC50: −log10 of the molar value. Like-named read-outs stand apart in the source and are kept apart here. Where a SMILES comes first, the peptide text is derived from it. Bridges are numbered along the chain shown (N, C = ends). [ ]: non-standard residue; d: D form. Nle = CCCC[C@H](N)C(=O)O; Dab = NCC[C@H](N)C(=O)O; Dap = NC[C@H](N)C(=O)O
Assays:
[1] = molecular target: T1, human Kv1.6 (Homo sapiens, UniProt P17658); experiment: cell-based
T1 construct: expressed in transfected cells; host or cells: CHO
T1 sequence (P17658 whole entry): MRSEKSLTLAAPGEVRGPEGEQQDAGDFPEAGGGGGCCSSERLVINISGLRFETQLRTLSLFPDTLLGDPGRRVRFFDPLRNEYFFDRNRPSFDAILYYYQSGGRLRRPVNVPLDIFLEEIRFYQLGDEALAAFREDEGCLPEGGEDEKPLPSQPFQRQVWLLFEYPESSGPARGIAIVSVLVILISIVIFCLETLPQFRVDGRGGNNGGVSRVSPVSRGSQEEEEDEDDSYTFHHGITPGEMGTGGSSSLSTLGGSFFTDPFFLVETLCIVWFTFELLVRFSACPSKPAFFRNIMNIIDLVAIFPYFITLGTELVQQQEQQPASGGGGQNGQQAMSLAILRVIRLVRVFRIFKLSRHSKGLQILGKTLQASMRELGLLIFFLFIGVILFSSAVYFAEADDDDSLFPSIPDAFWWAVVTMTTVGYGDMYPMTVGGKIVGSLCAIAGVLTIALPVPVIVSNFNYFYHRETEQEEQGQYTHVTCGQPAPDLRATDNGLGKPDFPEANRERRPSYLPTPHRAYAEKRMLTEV

[2] = molecular target: T2, human Kv1.2 (Homo sapiens, UniProt P16389); experiment: cell-based
T2 construct: expressed in transfected cells; host or cells: CHO
T2 sequence (P16389 whole entry): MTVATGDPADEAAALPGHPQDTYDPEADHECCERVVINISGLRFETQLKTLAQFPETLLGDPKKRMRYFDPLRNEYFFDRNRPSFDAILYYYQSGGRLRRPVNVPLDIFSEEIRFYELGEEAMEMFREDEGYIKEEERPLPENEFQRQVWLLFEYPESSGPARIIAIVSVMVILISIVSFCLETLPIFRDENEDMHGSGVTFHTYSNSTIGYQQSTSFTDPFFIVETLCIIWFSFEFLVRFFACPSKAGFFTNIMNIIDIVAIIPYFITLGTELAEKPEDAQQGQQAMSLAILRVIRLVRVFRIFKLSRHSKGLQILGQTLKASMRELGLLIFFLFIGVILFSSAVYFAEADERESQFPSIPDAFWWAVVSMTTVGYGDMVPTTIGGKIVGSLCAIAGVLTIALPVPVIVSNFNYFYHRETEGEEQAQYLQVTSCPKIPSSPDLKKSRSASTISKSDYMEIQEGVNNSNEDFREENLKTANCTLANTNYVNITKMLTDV

[3] = molecular target: Rat whole blood (Rattus norvegicus, UniProt P15384); type: cell-based
Chain of Rat whole blood (P15384 whole entry): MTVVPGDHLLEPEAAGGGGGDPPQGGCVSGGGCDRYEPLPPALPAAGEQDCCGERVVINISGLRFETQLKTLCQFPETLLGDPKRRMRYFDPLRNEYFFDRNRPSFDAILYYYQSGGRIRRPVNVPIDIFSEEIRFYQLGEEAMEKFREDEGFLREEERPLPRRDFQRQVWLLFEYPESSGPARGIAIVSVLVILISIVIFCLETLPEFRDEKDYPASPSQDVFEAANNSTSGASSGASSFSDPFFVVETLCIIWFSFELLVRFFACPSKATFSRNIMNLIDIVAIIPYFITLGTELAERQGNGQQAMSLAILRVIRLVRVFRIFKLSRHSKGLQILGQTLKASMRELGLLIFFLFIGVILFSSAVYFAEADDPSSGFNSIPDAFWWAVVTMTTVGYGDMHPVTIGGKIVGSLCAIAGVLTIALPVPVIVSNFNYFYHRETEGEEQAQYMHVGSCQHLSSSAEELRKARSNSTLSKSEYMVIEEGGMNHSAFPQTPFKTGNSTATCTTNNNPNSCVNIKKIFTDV

[4] = test system: KLH ear inflammation model in rats; type: in vivo, rat
[5] = molecular target: T3, human Kv1.1 (Homo sapiens, UniProt Q09470); experiment: cell-based
T3 construct: expressed in transfected cells; host or cells: CHO
T3 sequence (Q09470 whole entry): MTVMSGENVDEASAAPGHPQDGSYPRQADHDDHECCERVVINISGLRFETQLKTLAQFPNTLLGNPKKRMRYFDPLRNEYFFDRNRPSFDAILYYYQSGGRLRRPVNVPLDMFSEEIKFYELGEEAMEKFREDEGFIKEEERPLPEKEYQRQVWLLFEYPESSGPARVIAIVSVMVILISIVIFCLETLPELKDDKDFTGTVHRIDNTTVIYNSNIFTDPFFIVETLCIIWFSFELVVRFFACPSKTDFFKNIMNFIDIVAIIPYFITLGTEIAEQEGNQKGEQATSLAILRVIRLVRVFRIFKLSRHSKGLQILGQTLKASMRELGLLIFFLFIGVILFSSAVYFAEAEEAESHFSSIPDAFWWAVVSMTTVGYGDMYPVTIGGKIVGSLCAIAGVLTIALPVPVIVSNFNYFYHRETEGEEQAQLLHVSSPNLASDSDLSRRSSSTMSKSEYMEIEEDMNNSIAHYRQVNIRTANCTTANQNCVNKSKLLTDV

[6] = molecular target: T4, human Kv1.3 voltage-gated K+ channel (Homo sapiens, UniProt P22001); experiment: Kv1.3 blocker activity in FLIPR thallium assay; type: cell-based
T4 construct: host or cells: CHO-DUKX
T4 sequence (P22001 whole entry): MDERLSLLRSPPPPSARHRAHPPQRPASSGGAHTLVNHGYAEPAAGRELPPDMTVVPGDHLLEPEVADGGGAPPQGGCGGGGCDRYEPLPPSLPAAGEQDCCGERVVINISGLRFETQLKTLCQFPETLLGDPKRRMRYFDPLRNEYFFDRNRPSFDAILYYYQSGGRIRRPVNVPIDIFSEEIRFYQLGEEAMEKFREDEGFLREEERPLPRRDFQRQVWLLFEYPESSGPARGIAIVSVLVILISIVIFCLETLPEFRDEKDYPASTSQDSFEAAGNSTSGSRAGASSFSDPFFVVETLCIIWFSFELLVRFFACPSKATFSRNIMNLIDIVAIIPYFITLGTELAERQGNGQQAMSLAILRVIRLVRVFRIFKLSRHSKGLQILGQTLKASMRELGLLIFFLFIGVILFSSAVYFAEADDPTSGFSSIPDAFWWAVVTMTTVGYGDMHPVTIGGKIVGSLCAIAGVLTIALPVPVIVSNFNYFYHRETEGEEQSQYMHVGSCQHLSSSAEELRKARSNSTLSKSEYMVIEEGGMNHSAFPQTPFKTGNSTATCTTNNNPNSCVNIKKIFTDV
Protocol: A human Kv1.3 voltage-gated K+ channel cell line was purchased from Perkin Elmer (#TDS-AX-010-C-1). The cell line is based on CHO-DUKX cells stably transfected with the human Kv1.3 voltage-gated K+ channel.
The cell line was grown in MEMα with nucleotides, GlutaMAX (Gibco #32571028), 10% Foetal Bovine Serum (FBS), 0.4 mg/ml Geneticin, 100 units/ml Penicillin, and 100 μg/ml Streptomycin and seeded at 10.000 cells/well in black poly-D-lysine-coated 96 well plates.
The FluxOR™ Potassium Ion Channel Assay (Invitrogen #F10016) was used to quantitate flux of thallium ions into the cells as a response to Kv1.3 activation with a stimulus buffer causes depolarization of the cell membrane, thereby generating a fluorescent signal, proportional to channel activity. The assay was performed as described by the assay kit manufacturer including a compound pre-incubation step (30 min, 37° C., 5% CO2) in assay buffer containing 0.02% W/v casein from bovine milk (Sigma #C4765) prior to cell membrane depolarization using a final stimuli buffer composition corresponding to 0.2× FluxOR™ chloride-free buffer, 5 mM K2SO4, 1 mM Tl2SO4. The fluorescence responses were recorded and quantified (maximum response at 50 s, 37° C.) using the FLIPR® Tetra High Throughput Screening System (Molecular Devices, Inc.).
IC50 can be regarded as a measure of potency of inhibition for the respective compound. The IC50 value is a measure of the concentration of an inhibitor required to achieve half of that compound's maximal inhibition of ion channel activity in a given assay.

[7] = ratio of patch clamp IC50 values
[8] = IL-17A release, thapsigargin, 24 Hr, at least 2 replicates
[9] = 100 nmol/kg SC 24 hrs prior to KLH ear challenge, +/− SD

SMILES | Selectivity ratio Kv1.6/Kv1.3 [1, 7] | Selectivity ratio Kv1.2/Kv1.3 [2, 7] | pIC50 [3, 8] | % inhibition of ear thickness (AUC of Δ ear thickness 0-48 hours) [4, 9] | Selectivity ratio Kv1.1/Kv1.3 [5, 7] | pIC50 [6] | further results
CCCC[C@H](NC(=O)[C@@H]1CCCN1)C(=O)N[C@@H](CCC(=O)O)C(=O)N[C@@H](CCCC)C(=O)N[C@@H](CCCNC(=N)N)C(=O)N[C@H]1CSSC[C@@H]2NC(=O)[C@H](CCCCN)NC(=O)CNC(=O)[C@H](Cc3ccccc3)NC(=O)[C@H]([C@@H](C)CC)NC(=O)[C@H](CO)NC(=O)CNC(=O)[C@H]([C@@H](C)CC)NC(=O)[C@H](C)NC(=O)[C@H](C)NC(=O)[C@H](CC(C)C)NC(=O)[C@@H]3CSSC[C@@H](C(=O)N[C@@H](Cc4ccc(O)cc4)C(=O)N4CCC[C@H]4C(=O)N[C@@H](CCCNC(=N)N)C(=O)O)NC(=O)[C@H](CCCCN)NC(=O)[C@H](CSSC[C@H](NC(=O)[C@H](CCC(=O)O)NC(=O)[C@H](C(C)C)NC(=O)[C@H](CO)NC(=O)[C@H](C)NC(=O)[C@H](CO)NC1=O)C(=O)N[C@@H](C)C(=O)N[C@@H](CCC(N)=O)C(=O)N[C@@H](CCCCN)C(=O)N3)NC(=O)[C@H](CCCCN)NC(=O)[C@H](CCCCN)NC(=O)[C@H](CC(N)=O)NC(=O)[C@H](CCCC)NC2=O [compound 97] (H-P[Nle]E[Nle]RCSASVECAQKCLAAIGSIFGKC[Nle]NKKCKCYPR-OH; disulfide 6-27, 12-32, 16-34) | >5500 | 5500 | 8.92 | 48.9% | >5500 |  | 
CCCC[C@@H]1NC(=O)[C@@H]2CSSC[C@H](NC(=O)[C@H](CCCNC(=N)N)NC(=O)[C@H](CCCC)NC(=O)[C@H](CCC(=O)O)NC(=O)[C@@H](NC(=O)[C@@H]3CCCN3)[C@@H](C)CC)C(=O)N[C@@H](CO)C(=O)N[C@@H](C)C(=O)N[C@@H](CO)C(=O)N[C@@H](C(C)C)C(=O)N[C@@H](CCC(=O)O)C(=O)N[C@H]3CSSC[C@H](NC(=O)[C@H](CCCCN)NC(=O)[C@H](CCCCN)NC(=O)[C@H](CC(N)=O)NC1=O)C(=O)N[C@@H](CCCCN)C(=O)N[C@H](C(=O)N[C@@H](Cc1ccc(O)cc1)C(=O)N1CCC[C@H]1C(=O)N[C@@H](CCCNC(=N)N)C(=O)O)CSSC[C@H](NC(=O)[C@H](CCCCN)NC(=O)[C@H](CCC(N)=O)NC(=O)[C@H](CCCCN)NC3=O)C(=O)N[C@@H](CC(C)C)C(=O)N[C@@H](C)C(=O)N[C@@H](C)C(=O)N[C@@H]([C@@H](C)CC)C(=O)NCC(=O)N[C@@H](CO)C(=O)N[C@@H]([C@@H](C)CC)C(=O)N[C@@H](Cc1ccccc1)C(=O)NCC(=O)N[C@@H](CCCCN)C(=O)N2 [compound 95] (H-PIE[Nle]RCSASVECKQKCLAAIGSIFGKC[Nle]NKKCKCYPR-OH; disulfide 6-27, 12-32, 16-34) |  |  |  |  |  |  | Selectivity ratio Kv1.6/Kv1.3 [1]: >8600; Selectivity ratio Kv1.2/Kv1.3 [2]: 5630; pIC50 [3]: 9.21; % inhibition of ear thickness (AUC of Δ ear thickness 0-48 hours) ([4]; rat, in vivo): 44.5%; Selectivity ratio Kv1.1/Kv1.3 [5]: >8600
CC[C@H](C)[C@@H]1NC(=O)[C@H](C)NC(=O)[C@H](C)NC(=O)[C@H](CC(C)C)NC(=O)[C@@H]2CSSC[C@@H](C(=O)N[C@@H](Cc3ccc(O)cc3)C(=O)N3CCC[C@H]3C(=O)N[C@@H](CCCNC(=N)N)C(N)=O)NC(=O)[C@H](CCCCN)NC(=O)[C@@H]3CSSC[C@H](NC(=O)[C@H](CCC(=O)O)NC(=O)[C@H](C(C)C)NC(=O)[C@H](CO)NC(=O)[C@H](C)NC(=O)[C@H](CO)NC(=O)[C@@H](NC(=O)[C@H](CCCNC(=N)N)NC(=O)[C@H](CCSC)NC(=O)[C@H](CC(=O)O)NC(=O)[C@H](CCSC)NC(=O)[C@@H](N)CC(N)=O)CSSC[C@H](NC(=O)[C@H](CCCCN)NC(=O)CNC(=O)[C@H](Cc4ccccc4)NC(=O)[C@H]([C@@H](C)CC)NC(=O)[C@H](CO)NC(=O)CNC1=O)C(=O)N[C@@H](CCSC)C(=O)N[C@@H](CC(N)=O)C(=O)N[C@@H](CCCCN)C(=O)N[C@@H](CCCCN)C(=O)N3)C(=O)N[C@@H](CCCCN)C(=O)N[C@@H](CCC(N)=O)C(=O)N[C@@H](CCCCN)C(=O)N2 [compound 56] (H-NMDMRCSASVECKQKCLAAIGSIFGKCMNKKCKCYPR-NH2; disulfide 6-27, 12-32, 16-34) | >27500 | 803 | 9.16 | 25.1 (+/−6.3) % | >27500 |  | 
CCCC[C@H](NC(=O)[C@@H]1CCCN1)C(=O)N[C@@H](CCC(=O)O)C(=O)N[C@@H](CCCC)C(=O)N[C@@H](CCCNC(=N)N)C(=O)N[C@H]1CSSC[C@@H]2NC(=O)[C@H](CCCCN)NC(=O)CNC(=O)[C@H](Cc3ccccc3)NC(=O)[C@H]([C@@H](C)CC)NC(=O)[C@H](CO)NC(=O)CNC(=O)[C@H]([C@@H](C)CC)NC(=O)[C@H](C)NC(=O)[C@H](C)NC(=O)[C@H](CC(C)C)NC(=O)[C@@H]3CSSC[C@@H](C(=O)N[C@@H](Cc4ccc(O)cc4)C(=O)N4CCC[C@H]4C(=O)N[C@@H](CCCNC(=N)N)C(=O)O)NC(=O)[C@H](CCCCN)NC(=O)[C@H](CSSC[C@H](NC(=O)[C@H](CCC(=O)O)NC(=O)[C@H](C(C)C)NC(=O)[C@H](CO)NC(=O)[C@H](C)NC(=O)[C@H](CN)NC1=O)C(=O)N[C@@H](CCCCN)C(=O)N[C@@H](CCC(N)=O)C(=O)N[C@@H](CCCCN)C(=O)N3)NC(=O)[C@H](CCCCN)NC(=O)[C@H](CCCCN)NC(=O)[C@H](CC(N)=O)NC(=O)[C@H](CCCC)NC2=O [compound 7] (H-P[Nle]E[Nle]RC[Dap]ASVECKQKCLAAIGSIFGKC[Nle]NKKCKCYPR-OH; disulfide 6-27, 12-32, 16-34) |  |  |  |  |  | 9.55 | 
CCCC[C@H](NC(=O)[C@@H]1CCCN1)C(=O)N[C@@H](CCC(=O)O)C(=O)N[C@@H](CCCC)C(=O)N[C@@H](CCCNC(=N)N)C(=O)N[C@H]1CSSC[C@@H]2NC(=O)[C@H](CCCCN)NC(=O)CNC(=O)[C@H](Cc3ccccc3)NC(=O)[C@H]([C@@H](C)CC)NC(=O)[C@H](CO)NC(=O)CNC(=O)[C@H]([C@@H](C)CC)NC(=O)[C@H](C)NC(=O)[C@H](C)NC(=O)[C@H](CC(C)C)NC(=O)[C@@H]3CSSC[C@@H](C(=O)N[C@@H](Cc4ccc(O)cc4)C(=O)N4CCC[C@H]4C(=O)N[C@@H](CCCNC(=N)N)C(=O)O)NC(=O)[C@H](CCCCN)NC(=O)[C@H](CSSC[C@H](NC(=O)[C@H](CCC(=O)O)NC(=O)[C@H](C(C)C)NC(=O)[C@H](CO)NC(=O)[C@H](C)NC(=O)[C@H](Cc4ccc(O)cc4)NC1=O)C(=O)N[C@@H](CCCCN)C(=O)N[C@@H](CCC(N)=O)C(=O)N[C@@H](CCCCN)C(=O)N3)NC(=O)[C@H](CCCCN)NC(=O)[C@H](CCCCN)NC(=O)[C@H](CC(N)=O)NC(=O)[C@H](CCCC)NC2=O [compound 5] (H-P[Nle]E[Nle]RCYASVECKQKCLAAIGSIFGKC[Nle]NKKCKCYPR-OH; disulfide 6-27, 12-32, 16-34) |  |  |  |  |  | 9.74 | 
CCCC[C@H](NC(=O)[C@@H]1CCCN1)C(=O)N[C@@H](CCC(=O)O)C(=O)N[C@@H](CCCC)C(=O)N[C@@H](CCCNC(=N)N)C(=O)N[C@H]1CSSC[C@@H]2NC(=O)[C@H](CCCCN)NC(=O)CNC(=O)[C@H](Cc3ccccc3)NC(=O)[C@H]([C@@H](C)CC)NC(=O)[C@H](CO)NC(=O)CNC(=O)[C@H]([C@@H](C)CC)NC(=O)[C@H](C)NC(=O)[C@H](C)NC(=O)[C@H](CC(C)C)NC(=O)[C@@H]3CSSC[C@@H](C(=O)N[C@@H](Cc4ccc(O)cc4)C(=O)N4CCC[C@H]4C(=O)N[C@@H](CCCNC(=N)N)C(N)=O)NC(=O)[C@H](CCCCN)NC(=O)[C@H](CSSC[C@H](NC(=O)[C@H](CCC(=O)O)NC(=O)[C@H](C(C)C)NC(=O)[C@H](CO)NC(=O)[C@H](C)NC(=O)[C@H](CCN)NC1=O)C(=O)N[C@@H](C)C(=O)N[C@@H](CCC(N)=O)C(=O)N[C@@H](CO)C(=O)N3)NC(=O)[C@H](CCCCN)NC(=O)CNC(=O)[C@H](CC(N)=O)NC(=O)[C@H](CCCC)NC2=O [compound 10] (H-P[Nle]E[Nle]RC[Dab]ASVECAQSCLAAIGSIFGKC[Nle]NGKCKCYPR-NH2; disulfide 6-27, 12-32, 16-34) |  |  |  |  |  | 9.48 | 
